Values of other authors in patent publication US20260355228A1, “TREATMENT OF FAMILIAL ADENOMATOUS POLYOPSIS USING A 13-MEMBERED MACROLIDE” (ZIKANI THERAPEUTICS, INC., priority 2022, published 2026).

What was measured:
[1] = tested on: FAP patients harboring APC nonsense mutations; conditions: clinical study, FAP patients [25]
[2] = tested on: human colorectal xenografts possessing APC nonsense mutations; conditions: xenografts possessing APC nonsense mutations [23, 24]
mouse model of FAP = mouse model of FAP [23, 24]
[3] = tested on: APC gene nonsense mutations in colorectal cancer cell lines; conditions: colorectal cancer cell lines [23, 24]
[4] = tested on: APC (SW1417 colon carcinoma cells); conditions: SW1417 cells [23]
[5] = tested on: APC gene nonsense mutations in in vivo colon carcinoma models; conditions: in vivo colon carcinoma models [23]
APC L360X stop codon = conditions: luciferase based reporter vector [40]

CC[C@H]1OC(=O)[C@H](C)[C@@H](O[C@H]2C[C@@](C)(OC)[C@@H](O)[C@H](C)O2)[C@H](C)[C@@H](O[C@@H]2O[C@H](C)C[C@H](N(C)C)[C@H]2O)[C@](C)(O)C[C@@H](C)C(=O)[C@H](C)[C@@H](O)[C@]1(C)O [erythromycin]
adenoma burden [1]: decrease in adenoma burden
in vivo growth of human colorectal xenografts [2]: inhibited the in vivo growth of human colorectal xenografts
number of intestinal polyps (mouse model of FAP): reduced the number of intestinal polyps
suppression of nonsense mutations / translation termination in the APC gene [3]: suppressed nonsense mutations in the APC gene in human colon carcinoma cells

CC[C@H]1OC(=O)C[C@@H](O)[C@H](C)[C@@H](O[C@@H]2O[C@H](C)[C@@H](O[C@H]3C[C@@](C)(O)[C@@H](O)[C@H](C)O3)[C@H](N(C)C)[C@H]2O)[C@@H](CC=O)C[C@@H](C)C(=O)/C=C/C(C)=C/[C@@H]1CO[C@@H]1O[C@H](C)[C@@H](O)[C@@H](OC)[C@H]1OC [tylosin]
read-through of the nonsense mutation leading to synthesis of full-length, active APC protein [4]: low level of full-length, active APC protein
suppression of nonsense mutations / translation termination in the APC gene [3]: can suppress translation termination generated by nonsense mutations in the APC gene
suppression of translation termination generated by nonsense mutations in the APC gene [5]: can suppress translation termination generated by nonsense mutations in the APC gene

gentamicin
in vivo growth of human colorectal xenografts [2]: inhibited the in vivo growth of human colorectal xenografts
number of intestinal polyps (mouse model of FAP): reduced the number of intestinal polyps
suppression of nonsense mutations / translation termination in the APC gene [3]: suppressed nonsense mutations in the APC gene in human colon carcinoma cells
susceptibility of the L360X stop codon to read-through (APC L360X stop codon): most susceptible
